Activity calls are given as the source filed them. The calls are words filed in the database; no cut-off is given here.
Tests used:
[1] = Dark toxicity in human HeLa cells assessed as reduction in cell viability up to 10 uM measured after 24 hrs by MTT assay; type: cell-based
[2] = system: HeLa; test: Photocytotoxicity against human HeLa cells assessed as cell membrane blebbing at 10 uM preincubated for 1 hr followed by blue LED light irradiation for 5 mins by differential interference contrast imaging analysis; type: functional, cell-based
[3] = system: DNA; test: Induction of Escherichia coli pBR322 DNA cleavage at 20 uM irradiated with blue LED light after 30 mins in presence of singlet oxygen scavenger sodium azide by agarose gel electrophoresis method; type: nucleic-acid assay
[4] = system: HeLa; test: Photocytotoxicity against human HeLa cells assessed as reduction in cell viability at 2 uM preincubated for 1 hr followed blue LED light irradiation for 5 mins and measured after 24 hrs in presence of singlet oxygen scavenger histidine by MTT assay; type: functional, cell-based
[5] = system: HeLa; test: Induction of ROS generation in human HeLa cells preincubated for 1 hr followed by blue LED light irradiation for 15 mins by DHE staining based HCS analysis; type: functional, cell-based
[6] = system: HeLa; test: Photocytotoxicity against human HeLa cells assessed as induction of mitochondrial membrane potential depolarization at 10 uM preincubated for 1 hr followed by blue LED light irradiation for 5 mins by TMRE staining based confocal microscopic method; type: functional, cell-based
[7] = system: HeLa; test: Photocytotoxicity against human HeLa cells assessed as DNA fragmentation up to 10 uM preincubated for 1 hr followed by blue LED light irradiation for 5 mins and measured after 13 hrs by Hoechst 33258 staining based fluorescence microscopic method; type: functional, cell-based
[8] = system: HeLa; test: Photocytotoxicity against human HeLa cells assessed as reduction in cell viability preincubated for 1 hr followed blue LED light irradiation for 5 mins and measured after 24 hrs by MTT assay; type: functional, cell-based; details: for IC50: light or radiation study
[9] = system: MCF7; test: Photocytotoxicity against human MCF7 cells assessed as reduction in cell viability preincubated for 1 hr followed blue LED light irradiation for 10 mins and measured after 24 hrs by MTT assay; type: functional, cell-based; details: for IC50: MCF7, light or radiation study
[10] = system: MCF7; test: Photocytotoxicity against human MCF7 cells assessed as induction of mitochondrial membrane potential depolarization at 10 uM preincubated for 1 hr followed by blue LED light irradiation for 5 mins by TMRE staining based confocal microscopic method; type: functional, cell-based
[11] = system: HeLa; test: Photocytotoxicity against human HeLa cells assessed as reduction in cell viability preincubated for 1 hr followed blue LED light irradiation for 10 mins and measured after 24 hrs by MTT assay; type: functional, cell-based; details: for IC50: light or radiation study
[12] = system: HeLa; test: Photocytotoxicity against human HeLa cells assessed as chromatin condensation up to 10 uM preincubated for 1 hr followed by blue LED light irradiation for 5 mins and measured after 13 hrs by Hoechst 33258 staining based fluorescence microscopic method; type: functional, cell-based
[13] = system: HeLa; test: Photocytotoxicity against human HeLa cells assessed as plasma membrane blebbing up to 10 uM preincubated for 1 hr followed by blue LED light irradiation for 5 mins and measured after 13 hrs by Hoechst 33258 staining based fluorescence microscopic method; type: functional, cell-based
[14] = system: MCF7; test: Photocytotoxicity against human MCF7 cells assessed as reduction in cell viability preincubated for 1 hr followed blue LED light irradiation for 5 mins and measured after 24 hrs by MTT assay; type: functional, cell-based; details: for IC50: MCF7, light or radiation study
[15] = system: DNA; test: Induction of Escherichia coli pBR322 DNA cleavage at 20 uM after 30 mins under dark condition by agarose gel electrophoresis method; type: nucleic-acid assay; details: 0.5 h
[16] = system: A549; test: Photocytotoxicity against human A549 cells assessed as reduction in cell viability preincubated for 1 hr followed blue LED light irradiation for 10 mins and measured after 24 hrs by MTT assay; type: functional, cell-based; details: for IC50: A549, light or radiation study
[17] = system: DNA; test: Induction of Escherichia coli pBR322 DNA cleavage at 20 uM irradiated with blue LED light after 30 mins in presence of hydroxyl radical scavenger mannitol by agarose gel electrophoresis method; type: nucleic-acid assay
[18] = Dark toxicity in human A549 cells assessed as reduction in cell viability up to 10 uM measured after 24 hrs by MTT assay; type: cell-based; details: a549, 24 h
[19] = system: DNA; test: Induction of Escherichia coli pBR322 DNA cleavage at 20 uM irradiated with blue LED light after 30 mins in presence of H2O2 scavenger KI by agarose gel electrophoresis method; type: nucleic-acid assay
[20] = system: A549; test: Photocytotoxicity against human A549 cells assessed as reduction in cell viability preincubated for 1 hr followed blue LED light irradiation for 5 mins and measured after 24 hrs by MTT assay; type: functional, cell-based; details: for IC50: A549, light or radiation study
[21] = system: HeLa; test: Photocytotoxicity against human HeLa cells assessed as cellular shrinkage up to 10 uM preincubated for 1 hr followed by blue LED light irradiation for 5 mins and measured after 13 hrs by Hoechst 33258 staining based fluorescence microscopic method; type: functional, cell-based
[22] = Dark toxicity in human MCF7 cells assessed as reduction in cell viability up to 10 uM measured after 24 hrs by MTT assay; type: cell-based; details: mcf7, 24 h
[23] = Drug uptake in human HeLa cell mitochondria at 10 uM after 1 hr by mitotracker red staining based confocal laser scanning microscopic method; type: ADME
[24] = system: DNA; test: Induction of Escherichia coli pBR322 DNA cleavage irradiated with blue LED light after 30 mins by agarose gel electrophoresis method; type: nucleic-acid assay
[25] = Induction of singlet oxygen production assessed as photodegradation of DPBF by measuring quantum yield after irradiation with 356 nanometer light by UV-Visible spectroscopic analysis; type: functional
[26] = system: HeLa; test: Photocytotoxicity against human HeLa cells assessed as morphological changes at 5 uM preincubated for 1 hr followed by blue LED light irradiation for 10 mins and measured after 2.5 hrs by holotomographic method; type: functional, cell-based
[27] = system: HeLa; test: Photocytotoxicity against human HeLa cells assessed as cell death at 0.5 uM preincubated for 1 hr followed blue LED light irradiation for 5 mins and measured after 24 hrs by MTT assay relative to control; type: functional

| Compound | Activity [1] | Activity [5] | Activity [7] | Activity [8] | IC50 [8] [nM] | Activity [9] | IC50 [9] [nM] | Activity [11] | IC50 [11] [nM] | Activity [12] | Activity [13] | Activity [14] | IC50 [14] [nM] | Activity [15] | Activity [16] | IC50 [16] [nM] | Activity [18] | Activity [20] | IC50 [20] [nM] | Activity [21] | further results |
| --- | --- | --- | --- | --- | --- | --- | --- | --- | --- | --- | --- | --- | --- | --- | --- | --- | --- | --- | --- | --- | --- |
| Cc1cccn2c1cc1c3ccccc3nc(-c3cccs3)c12 | Non-Toxic | Dose-dependent effect | Active | Dose-dependent effect | 1170 | Dose-dependent effect | 1390 | Dose-dependent effect | 550 | Active | Active | Dose-dependent effect | 2680 | Non-Toxic | Dose-dependent effect | 1990 | Non-Toxic | Dose-dependent effect | 3380 | Active | Activity [2]: Active; Activity [3]: inactive; Activity [4]: inactive; Activity [6]: Active; Activity [10]: Active; Activity [17]: Active; Activity [19]: inactive; Activity [22]: Non-Toxic; Drug uptake [23]: Active; Activity [24]: Dose-dependent effect; Activity [25]: 0.42 |
| Cc1cccn2c1cc1c3ccccc3nc(-c3ccc(Cl)o3)c12 | Non-Toxic | Dose-dependent effect | Active | Dose-dependent effect | 3510 | Dose-dependent effect | 620 | Dose-dependent effect | 2070 | Active | Active | Dose-dependent effect | 930 | Non-Toxic | Dose-dependent effect | 1130 | Non-Toxic | Dose-dependent effect | 1430 | Active | Activity [22]: Non-Toxic; Activity [25]: 0.38 |
| c1csc(-c2nc3ccccc3c3cc4ccccn4c23)c1 | Non-Toxic | Dose-dependent effect | Active | Dose-dependent effect | 1450 | Dose-dependent effect | 1550 | Dose-dependent effect | 630 | Active | Active | Dose-dependent effect | 3460 | Non-Toxic | Dose-dependent effect | 1990 | Non-Toxic | Dose-dependent effect | 4150 | Active | Activity [4]: inactive; Activity [22]: Non-Toxic; Activity [24]: Dose-dependent effect; Activity [25]: 0.4 |
| Brc1ccc2cc3c4ccccc4nc(-c4ccco4)c3n2c1 | Toxic | Dose-dependent effect | Active | Dose-dependent effect | 1140 | Dose-dependent effect | 830 | Dose-dependent effect | 810 | Active | Active | Dose-dependent effect | 1330 | Non-Toxic | Dose-dependent effect | 1590 | Toxic | Dose-dependent effect | 2160 | Active | Activity [22]: Toxic; Activity [24]: Dose-dependent effect; Activity [25]: 0.6 |
| Clc1ccc(-c2nc3ccccc3c3cc4ccccn4c23)s1 | Non-Toxic | Dose-dependent effect | Active | Dose-dependent effect | 490 | Dose-dependent effect | 1040 | Dose-dependent effect | 410 | Active | Active | Dose-dependent effect | 1680 | Non-Toxic | Dose-dependent effect | 1030 | Non-Toxic | Dose-dependent effect | 1330 | Active | Activity [26]: Active; Activity [27]: >50%; Activity [22]: Non-Toxic; Activity [25]: 0.47 |
